Assay results: patent US12156922B2, “Copper-containing complex and uses thereof” (Bar-Ilan University, priority 2017, dated 2024)
Values belong to the molecule of their own block, whether it stands above or below them.

Columns and labels:
DA3 breast cancer cells = experiment: Cu(I) levels in cells by bicinchoninic acid (BCA) absorption at 562 nm; type: cell-based
Procedure: The interaction between cells and Cu(II)-ligand-peptide complexes under various conditions was investigated by contacting DA3 breast cancer cells with a Cu(II)-IDA-Cys1 complex (prepared as described in Example 2) or with CuCl2 as a control. The concentration of reduced copper (Cu(I)) was then determined by complexation with bicinchoninic acid (BCA) and evaluating the concentration of BCA-Cu(I) by measuring absorption at a wavelength of 562 nm.

[1] = UV-visible spectrophotometry of Tyr-peptide binding to Cu(II), absorption at 276 nm
Procedure: In order to compare affinity of peptides to Cu(II)-ligand-peptide complexes, UV-visible spectrophotometry was used to assess the degree of incorporation of Cys1-Tyr (SEQ ID NO: 51) and Met1-Tyr (SEQ ID NO: 50) peptides into Cu(II)-containing complexes, at various concentrations of Cu(II), IDA and peptide. The spectrophotometry focused on changes in Tyr residue absorption at about 276 nm. […]
In addition, 1 mM of peptide (16.6 μl) with 1 mM CuCl2 (12.5 μl) in ultrapure water (258.4 μl) was titrated with various concentrations (ranging from 0.25 to 1 mM or 0.25 to 1.25 mM) of IDA.

Ctr1 = target: T1, Ctr1 (Homo sapiens, UniProt O15431, DEL121-121); experiment: EPR of Cu(II) coordination after exposure of complex to purified Ctr1; type: binding; conditions: 120 K, 0.5 mM
T1 construct: intein (cleaved yes); made in house; host or cells: Escherichia coli BL21 (DE3)
T1 sequence (O15431 with tags, fused parts or gaps DEL121-121): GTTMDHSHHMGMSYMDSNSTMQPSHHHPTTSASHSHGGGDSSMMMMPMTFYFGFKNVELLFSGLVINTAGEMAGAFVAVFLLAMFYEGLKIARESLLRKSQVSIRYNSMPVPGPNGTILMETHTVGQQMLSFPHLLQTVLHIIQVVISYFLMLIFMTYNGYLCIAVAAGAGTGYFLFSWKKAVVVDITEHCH
From the text: Human Ctr1 (hCtr1) was obtained by expression and purification of a protein (SEQ ID NO: 43), using a pYTB12-hCTR1 plasmid, in which the full length hCTR1 sequence was cloned into the pYTB12 plasmid. This construct encodes for a fusion protein composed of hCTR1, intein, and a chitin-binding domain. The plasmid was transformed into the Escherichia coli strain BL21 (DE3).
In order to assess the behavior of a Cu(II)-ligand-peptide complex under physiological conditions, the coordination of Cu(II) was investigated by EPR spectroscopy following exposure of a Cu(II)-IDA-Met1 complex (prepared as described in Example 2) to the copper transporter Ctr1 (in a purified state), which plays a central role in the cellular copper cycle. For comparison, the behavior of Cu(II)-IDA (without a peptide) was also investigated under such conditions. EPR spectra were interpreted by comparison to simulated spectra prepared using the EasySpin™ computational package.

Molecule: [Cl][Cu][Cl] [free Cu(II) ions, CuCl2]
time for which Cu(I) concentration in cells is maintained (DA3 breast cancer cells; 1.5 mM): depleted from the cell within several hours | Cu(I) ions in cells, hypoxic vs normoxic conditions (DA3 breast cancer cells; 1.5 mM, 2, 6 or 24 hours after exposure): more Cu(I) ions are observed in cells under hypoxic conditions than under normoxic conditions | entry of copper into cells in the presence of Ag(I) ions, a Ctr1 inhibitor (DA3 breast cancer cells; 3 mM Ag(I) ions, 1.5 mM copper species): not blocked

Molecule: KSMAACAM (Cys1 peptide sequence)
affinity to Cu(II), comparison of peptides ([1]; from Cys1-Tyr and Met1-Tyr titrations): considerably stronger affinity to Cu(II) than does Met1

Molecule: MYGMKGMSY [Met1-Tyr]
IDA-dependent change in absorption at 276 nm ([1]; 1 mM peptide, 1 mM CuCl2, titrated with IDA): larger IDA-dependent change in absorption than did Cys1-Tyr

coordination of Cu(II) in the presence of Ctr1 (Ctr1): becomes coordinated to the Ctr1
Molecule: O=C([O-])CNCC(=O)[O-].[Cu+2] [Cu(II)-IDA]
